# From PubChem BioAssay (NCI)
#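 Assay format: 96-well plates, 48-hour exposure. The concentration for 50% growth inhibition is given as GI50. TGI: concentration producing complete growth inhibition.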
# Legend:
# Assay in all cases: NCI tumour cell line growth inhibition, 48 h
# HCC-2998 colon = tested on: HCC-2998 colon
# TK-10 renal = tested on: TK-10 renal
# UACC-257 melanoma = tested on: UACC-257 melanoma
# T-47D breast = tested on: T-47D breast
# A498 renal = tested on: A498 renal
# UO-31 renal = tested on: UO-31 renal
# IGROV1 ovarian = tested on: IGROV1 ovarian
# MALME-3M melanoma = tested on: MALME-3M melanoma
# PC-3 prostate = tested on: PC-3 prostate
# HCT-116 colon = tested on: HCT-116 colon
# UACC-62 melanoma = tested on: UACC-62 melanoma
# A549 NSCLC = tested on: A549 NSCLC
# U251 CNS = tested on: U251 CNS
# SK-MEL-5 melanoma = tested on: SK-MEL-5 melanoma
# MOLT-4 leukemia = tested on: MOLT-4 leukemia
# RPMI-8226 leukemia = tested on: RPMI-8226 leukemia
# DU-145 prostate = tested on: DU-145 prostate
# SK-MEL-2 melanoma = tested on: SK-MEL-2 melanoma
# OVCAR-5 ovarian = tested on: OVCAR-5 ovarian
# SF-539 CNS = tested on: SF-539 CNS
# SNB-19 CNS = tested on: SNB-19 CNS
# CCRF-CEM leukemia = tested on: CCRF-CEM leukemia
# COLO 205 colon = tested on: COLO 205 colon
# SF-295 CNS = tested on: SF-295 CNS
# OVCAR-3 ovarian = tested on: OVCAR-3 ovarian
# SNB-75 CNS = tested on: SNB-75 CNS
# SR leukemia = tested on: SR leukemia
# RXF 393 renal = tested on: RXF 393 renal
# NCI-H522 lung = tested on: NCI-H522 lung
# 786-0 renal = tested on: 786-0 renal
# HS 578T breast = tested on: HS 578T breast
# OVCAR-4 ovarian = tested on: OVCAR-4 ovarian
# SW-620 colon = tested on: SW-620 colon
# ACHN renal = tested on: ACHN renal
# EKVX NSCLC = tested on: EKVX NSCLC
# SN12C renal = tested on: SN12C renal
# NCI/ADR-RES ovarian = tested on: NCI/ADR-RES ovarian
# KM12 colon = tested on: KM12 colon
# HL-60(TB) leukemia = tested on: HL-60(TB) leukemia
# BT-549 breast = tested on: BT-549 breast
# OVCAR-8 ovarian = tested on: OVCAR-8 ovarian
# SK-MEL-28 melanoma = tested on: SK-MEL-28 melanoma
# HCT-15 colon = tested on: HCT-15 colon
# NCI-H23 lung = tested on: NCI-H23 lung
# MDA-MB-231 breast = tested on: MDA-MB-231 breast
# HT29 colon = tested on: HT29 colon
# NCI-H460 lung = tested on: NCI-H460 lung
# MCF7 breast = tested on: MCF7 breast
# LOX IMVI melanoma = tested on: LOX IMVI melanoma
# CAKI-1 renal = tested on: CAKI-1 renal
# HOP-62 NSCLC = tested on: HOP-62 NSCLC
# SK-OV-3 ovarian = tested on: SK-OV-3 ovarian
# HOP-92 NSCLC = tested on: HOP-92 NSCLC
# SF-268 CNS = tested on: SF-268 CNS
# MDA-MB-435 = tested on: MDA-MB-435
smiles,measurement,setting,value
O=C(CCCCCCC(=O)N/N=C/c1ccc(N(c2ccccc2)c2ccccc2)cc1)NO,GI50,HCC-2998 colon,2.87 µM
same,TGI,HCC-2998 colon,11.2 µM
same,GI50,TK-10 renal,0.314 µM
same,TGI,TK-10 renal,1.86 µM
same,GI50,UACC-257 melanoma,0.39 µM
same,TGI,UACC-257 melanoma,1.57 µM
same,GI50,T-47D breast,0.309 µM
same,TGI,T-47D breast,2.41 µM
same,GI50,A498 renal,0.357 µM
same,TGI,A498 renal,1.62 µM
same,GI50,UO-31 renal,1.44 µM
same,TGI,UO-31 renal,4.4 µM
same,GI50,IGROV1 ovarian,0.505 µM
same,TGI,IGROV1 ovarian,2.74 µM
same,GI50,MALME-3M melanoma,3.25 µM
same,TGI,MALME-3M melanoma,15 µM
same,GI50,PC-3 prostate,2.39 µM
same,TGI,PC-3 prostate,10.7 µM
same,GI50,HCT-116 colon,0.349 µM
same,TGI,HCT-116 colon,1.97 µM
same,GI50,UACC-62 melanoma,0.445 µM
same,TGI,UACC-62 melanoma,1.98 µM
same,GI50,A549 NSCLC,2.99 µM
same,TGI,A549 NSCLC,9.51 µM
same,GI50,U251 CNS,1.75 µM
same,TGI,U251 CNS,4.46 µM
same,GI50,SK-MEL-5 melanoma,1.76 µM
same,TGI,SK-MEL-5 melanoma,3.63 µM
same,GI50,MOLT-4 leukemia,1.88 µM
same,TGI,MOLT-4 leukemia,10.3 µM
same,GI50,RPMI-8226 leukemia,1.88 µM
same,TGI,RPMI-8226 leukemia,14 µM
same,GI50,DU-145 prostate,2.43 µM
same,TGI,DU-145 prostate,8.13 µM
same,GI50,SK-MEL-2 melanoma,2.71 µM
same,TGI,SK-MEL-2 melanoma,7.81 µM
same,GI50,OVCAR-5 ovarian,0.417 µM
same,TGI,OVCAR-5 ovarian,2.94 µM
same,GI50,SF-539 CNS,2.17 µM
same,TGI,SF-539 CNS,4.95 µM
same,GI50,SNB-19 CNS,3.35 µM
same,TGI,SNB-19 CNS,15.9 µM
same,GI50,CCRF-CEM leukemia,2.64 µM
same,TGI,CCRF-CEM leukemia,16.4 µM
same,GI50,COLO 205 colon,2.02 µM
same,TGI,COLO 205 colon,4.63 µM
same,GI50,SF-295 CNS,1.77 µM
same,TGI,SF-295 CNS,4.47 µM
same,GI50,OVCAR-3 ovarian,1.45 µM
same,TGI,OVCAR-3 ovarian,4.58 µM
same,GI50,SNB-75 CNS,2.04 µM
same,TGI,SNB-75 CNS,14.2 µM
same,GI50,SR leukemia,2.38 µM
same,TGI,SR leukemia,14.1 µM
same,GI50,RXF 393 renal,2.27 µM
same,TGI,RXF 393 renal,7.06 µM
same,GI50,NCI-H522 lung,1.92 µM
same,TGI,NCI-H522 lung,6.92 µM
same,GI50,786-0 renal,1.58 µM
same,TGI,786-0 renal,3.7 µM
same,GI50,HS 578T breast,6.14 µM
same,TGI,HS 578T breast,31.2 µM
same,GI50,OVCAR-4 ovarian,1.65 µM
same,TGI,OVCAR-4 ovarian,8.72 µM
same,GI50,SW-620 colon,2.49 µM
same,TGI,SW-620 colon,14.3 µM
same,GI50,ACHN renal,2.28 µM
same,TGI,ACHN renal,7.39 µM
same,GI50,EKVX NSCLC,3.82 µM
same,TGI,EKVX NSCLC,15.2 µM
same,GI50,SN12C renal,2.94 µM
same,TGI,SN12C renal,13.5 µM
same,GI50,NCI/ADR-RES ovarian,3.07 µM
same,TGI,NCI/ADR-RES ovarian,20.5 µM
same,GI50,KM12 colon,2.72 µM
same,TGI,KM12 colon,13.1 µM
same,GI50,HL-60(TB) leukemia,2.64 µM
same,TGI,HL-60(TB) leukemia,7.57 µM
same,GI50,BT-549 breast,2.38 µM
same,TGI,BT-549 breast,11.5 µM
same,GI50,OVCAR-8 ovarian,3.02 µM
same,TGI,OVCAR-8 ovarian,20.8 µM
same,GI50,SK-MEL-28 melanoma,3.06 µM
same,TGI,SK-MEL-28 melanoma,11.6 µM
same,GI50,HCT-15 colon,2.69 µM
same,TGI,HCT-15 colon,12 µM
same,GI50,NCI-H23 lung,2.41 µM
same,TGI,NCI-H23 lung,10.7 µM
same,GI50,MDA-MB-231 breast,3.37 µM
same,TGI,MDA-MB-231 breast,12.2 µM
same,GI50,HT29 colon,2.26 µM
same,TGI,HT29 colon,6.76 µM
same,GI50,NCI-H460 lung,1.54 µM
same,TGI,NCI-H460 lung,8.58 µM
same,GI50,MCF7 breast,0.601 µM
same,TGI,MCF7 breast,11.3 µM
same,GI50,LOX IMVI melanoma,0.432 µM
same,TGI,LOX IMVI melanoma,1.61 µM
same,GI50,CAKI-1 renal,0.201 µM
same,TGI,CAKI-1 renal,1.24 µM
same,GI50,HOP-62 NSCLC,2.21 µM
same,TGI,HOP-62 NSCLC,10.2 µM
same,GI50,SK-OV-3 ovarian,1.6 µM
same,TGI,SK-OV-3 ovarian,5.29 µM
same,GI50,HOP-92 NSCLC,1.67 µM
same,TGI,HOP-92 NSCLC,4.25 µM
same,GI50,SF-268 CNS,3.27 µM
same,TGI,SF-268 CNS,13.6 µM
same,GI50,MDA-MB-435,3.16 µM
same,TGI,MDA-MB-435,18.5 µM
